Test results reported in ChEMBL document CHEMBL4138148, “Discovery of novel pyrrolo-pyridine/pyrimidine derivatives bearing pyridazinone moiety as c-Met kinase inhibitors” (Eur J Med Chem, 2017).
pIC50: −log10 of the molar value. Activity calls are given as the source filed them. The calls are words filed in the database; no cut-off is given here.

What was measured:
HepG2 [1] = assay: cells; conditions: Homo sapiens, HepG2, 72 h
Description: (§1) Cytotoxicity against human HepG2 cells assessed as reduction in cell viability after 72 hrs by MTT assay

PC-3 [2] = assay: cells; conditions: Homo sapiens, PC-3, 72 h
Description: (§2) Cytotoxicity against human PC3 cells assessed as reduction in cell viability after 72 hrs by MTT assay

[3] = target: Hepatocyte growth factor receptor (Homo sapiens, UniProt P08581); assay: Inhibition of c-MET (unknown origin) using FAM-labeled peptide as substrate preincubated for 10 mins followed by substrate addition by mobility shift assay
Chain of Hepatocyte growth factor receptor (P08581 whole entry): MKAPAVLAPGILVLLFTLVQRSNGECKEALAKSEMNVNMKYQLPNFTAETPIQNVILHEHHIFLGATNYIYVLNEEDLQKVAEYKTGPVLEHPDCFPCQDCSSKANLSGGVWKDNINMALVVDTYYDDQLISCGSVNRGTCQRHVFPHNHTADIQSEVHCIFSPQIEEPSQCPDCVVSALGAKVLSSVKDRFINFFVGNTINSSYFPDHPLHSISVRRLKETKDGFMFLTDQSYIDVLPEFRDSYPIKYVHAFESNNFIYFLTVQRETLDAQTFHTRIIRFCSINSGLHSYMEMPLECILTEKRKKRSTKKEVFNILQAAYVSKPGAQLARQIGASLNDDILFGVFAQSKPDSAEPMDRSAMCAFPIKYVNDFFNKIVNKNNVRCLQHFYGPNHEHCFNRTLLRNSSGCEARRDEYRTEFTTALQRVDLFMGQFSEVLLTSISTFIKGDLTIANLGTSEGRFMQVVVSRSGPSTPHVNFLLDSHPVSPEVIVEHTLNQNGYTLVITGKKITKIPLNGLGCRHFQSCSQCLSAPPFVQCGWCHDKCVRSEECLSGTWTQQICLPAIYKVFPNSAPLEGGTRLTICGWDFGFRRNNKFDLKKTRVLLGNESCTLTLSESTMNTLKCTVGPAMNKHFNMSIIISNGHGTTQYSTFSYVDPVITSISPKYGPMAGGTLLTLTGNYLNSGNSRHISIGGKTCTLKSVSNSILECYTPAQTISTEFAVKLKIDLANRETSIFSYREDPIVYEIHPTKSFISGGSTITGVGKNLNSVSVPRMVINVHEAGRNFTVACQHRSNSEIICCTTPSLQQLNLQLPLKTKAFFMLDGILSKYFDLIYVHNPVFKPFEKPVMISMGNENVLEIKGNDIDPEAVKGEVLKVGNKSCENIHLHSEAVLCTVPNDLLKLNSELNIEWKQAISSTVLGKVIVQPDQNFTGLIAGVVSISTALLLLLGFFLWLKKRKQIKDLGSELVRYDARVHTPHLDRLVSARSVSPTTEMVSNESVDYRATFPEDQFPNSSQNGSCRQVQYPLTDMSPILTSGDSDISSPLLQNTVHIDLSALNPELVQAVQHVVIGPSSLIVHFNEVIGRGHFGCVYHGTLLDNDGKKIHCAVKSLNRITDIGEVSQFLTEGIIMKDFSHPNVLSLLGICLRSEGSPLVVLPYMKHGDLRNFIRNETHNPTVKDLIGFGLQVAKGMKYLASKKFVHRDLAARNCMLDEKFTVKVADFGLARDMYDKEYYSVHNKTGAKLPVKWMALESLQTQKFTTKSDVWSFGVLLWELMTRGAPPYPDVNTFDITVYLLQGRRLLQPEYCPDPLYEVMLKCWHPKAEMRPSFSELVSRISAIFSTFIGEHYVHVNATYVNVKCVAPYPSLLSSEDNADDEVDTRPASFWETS

MCF7 [4] = assay: cells; conditions: Homo sapiens, MCF7, 72 h
Description: (§3) Cytotoxicity against human MCF7 cells assessed as reduction in cell viability after 72 hrs by MTT assay

A549 [5] = assay: cells; conditions: Homo sapiens, A549, 72 h
Description: (§4) Cytotoxicity against human A549 cells assessed as reduction in cell viability after 72 hrs by MTT assay

HepG2 [6] = assay: Induction of apoptosis in human HepG2 cells assessed as formation of DNA fragments at 1.3 uM by acridine orange dye based inverted fluorescence microscopy; format: functional, cell-based
HepG2 [7] = assay: Induction of apoptosis in human HepG2 cells assessed as formation of chromatin condensation at 1.3 uM by acridine orange dye based inverted fluorescence microscopy; format: functional, cell-based
[8] = target: Vascular endothelial growth factor receptor 2 (Homo sapiens, UniProt P35968); assay: Inhibition of VEGFR2 (unknown origin) using FAM-labeled peptide as substrate preincubated for 10 mins followed by substrate addition by mobility shift assay
Chain of Vascular endothelial growth factor receptor 2 (P35968 whole entry): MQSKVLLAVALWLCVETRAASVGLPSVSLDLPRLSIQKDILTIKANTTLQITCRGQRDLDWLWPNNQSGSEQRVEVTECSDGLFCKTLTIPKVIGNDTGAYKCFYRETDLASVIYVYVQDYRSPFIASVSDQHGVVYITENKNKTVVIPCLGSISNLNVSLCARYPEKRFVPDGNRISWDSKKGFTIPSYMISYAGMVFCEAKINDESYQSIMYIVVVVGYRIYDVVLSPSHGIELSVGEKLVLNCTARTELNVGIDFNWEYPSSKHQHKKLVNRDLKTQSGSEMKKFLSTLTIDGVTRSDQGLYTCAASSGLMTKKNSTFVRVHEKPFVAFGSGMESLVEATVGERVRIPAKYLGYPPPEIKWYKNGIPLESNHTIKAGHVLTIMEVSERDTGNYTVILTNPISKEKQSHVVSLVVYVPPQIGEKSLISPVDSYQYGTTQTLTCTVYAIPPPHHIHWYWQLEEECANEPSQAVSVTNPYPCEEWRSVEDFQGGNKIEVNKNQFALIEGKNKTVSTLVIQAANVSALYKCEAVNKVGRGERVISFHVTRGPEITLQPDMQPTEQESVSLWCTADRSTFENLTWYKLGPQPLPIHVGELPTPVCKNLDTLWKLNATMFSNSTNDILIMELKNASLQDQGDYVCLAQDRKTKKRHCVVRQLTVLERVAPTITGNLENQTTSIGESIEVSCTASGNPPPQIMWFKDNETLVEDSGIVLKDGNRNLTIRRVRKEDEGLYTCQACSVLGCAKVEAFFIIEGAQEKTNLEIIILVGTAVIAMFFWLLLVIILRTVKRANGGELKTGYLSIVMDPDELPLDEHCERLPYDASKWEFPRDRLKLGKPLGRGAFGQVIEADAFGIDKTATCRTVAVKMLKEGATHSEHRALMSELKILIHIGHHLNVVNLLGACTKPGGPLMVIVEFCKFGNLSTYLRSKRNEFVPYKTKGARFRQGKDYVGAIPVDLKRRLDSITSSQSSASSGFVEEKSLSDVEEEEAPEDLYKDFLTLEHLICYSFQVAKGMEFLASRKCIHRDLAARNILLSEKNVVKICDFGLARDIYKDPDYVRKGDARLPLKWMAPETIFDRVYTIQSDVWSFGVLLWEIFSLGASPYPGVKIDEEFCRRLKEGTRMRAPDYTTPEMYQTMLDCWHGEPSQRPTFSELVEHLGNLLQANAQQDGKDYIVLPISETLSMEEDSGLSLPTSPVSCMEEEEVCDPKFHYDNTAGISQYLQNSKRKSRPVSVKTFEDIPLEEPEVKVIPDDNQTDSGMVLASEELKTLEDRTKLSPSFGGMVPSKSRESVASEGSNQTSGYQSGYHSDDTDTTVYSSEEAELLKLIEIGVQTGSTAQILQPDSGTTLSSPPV

PC-3 [9] = conditions: Homo sapiens
Description: as §2

A549 [10] = conditions: Homo sapiens
Description: as §4

[11] = target: T1, Receptor-type tyrosine-protein kinase FLT3 (Homo sapiens, UniProt P36888); assay: Inhibition of FLT3 (unknown origin) using FAM-labeled peptide as substrate preincubated for 10 mins followed by substrate addition by mobility shift assay
T1 sequence (P36888 whole entry): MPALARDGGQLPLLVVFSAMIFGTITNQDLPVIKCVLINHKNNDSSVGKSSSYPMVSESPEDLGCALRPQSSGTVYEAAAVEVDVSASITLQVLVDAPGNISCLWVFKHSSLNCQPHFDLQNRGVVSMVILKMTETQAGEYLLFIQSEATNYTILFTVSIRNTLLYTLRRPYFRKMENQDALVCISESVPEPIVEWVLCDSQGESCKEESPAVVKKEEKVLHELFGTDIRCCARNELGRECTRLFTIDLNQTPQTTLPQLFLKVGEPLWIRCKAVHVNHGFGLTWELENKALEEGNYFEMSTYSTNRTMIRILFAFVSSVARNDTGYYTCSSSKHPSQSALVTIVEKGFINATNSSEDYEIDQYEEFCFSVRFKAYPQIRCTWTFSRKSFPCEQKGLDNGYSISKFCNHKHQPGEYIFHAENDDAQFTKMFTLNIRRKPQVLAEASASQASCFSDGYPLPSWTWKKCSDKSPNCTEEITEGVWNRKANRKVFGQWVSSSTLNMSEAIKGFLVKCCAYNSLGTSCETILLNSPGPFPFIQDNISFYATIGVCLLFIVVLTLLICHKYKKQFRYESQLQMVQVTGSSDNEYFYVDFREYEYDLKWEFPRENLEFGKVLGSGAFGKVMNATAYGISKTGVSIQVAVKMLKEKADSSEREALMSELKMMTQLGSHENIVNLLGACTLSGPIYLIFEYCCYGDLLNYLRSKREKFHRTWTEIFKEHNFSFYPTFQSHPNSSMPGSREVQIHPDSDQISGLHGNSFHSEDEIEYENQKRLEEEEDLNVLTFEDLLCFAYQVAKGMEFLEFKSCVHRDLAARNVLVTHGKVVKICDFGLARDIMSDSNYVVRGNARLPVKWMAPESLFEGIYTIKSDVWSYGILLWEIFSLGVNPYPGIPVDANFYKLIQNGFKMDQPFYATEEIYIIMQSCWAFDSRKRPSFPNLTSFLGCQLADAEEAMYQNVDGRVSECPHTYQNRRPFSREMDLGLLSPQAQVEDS

HepG2 [12] = assay: Induction of apoptosis in human HepG2 cells assessed as formation of cell shrinkage at 1.3 uM by acridine orange dye based inverted fluorescence microscopy; format: functional
MCF7 [13] = conditions: Homo sapiens
Description: as §3

HepG2 [14] = conditions: Homo sapiens
Description: as §1

[15] = target: Epidermal growth factor receptor (Homo sapiens, UniProt P00533); assay: Inhibition of EGFR (unknown origin) using FAM-labeled peptide as substrate preincubated for 10 mins followed by substrate addition by mobility shift assay
Chain of Epidermal growth factor receptor (P00533 whole entry): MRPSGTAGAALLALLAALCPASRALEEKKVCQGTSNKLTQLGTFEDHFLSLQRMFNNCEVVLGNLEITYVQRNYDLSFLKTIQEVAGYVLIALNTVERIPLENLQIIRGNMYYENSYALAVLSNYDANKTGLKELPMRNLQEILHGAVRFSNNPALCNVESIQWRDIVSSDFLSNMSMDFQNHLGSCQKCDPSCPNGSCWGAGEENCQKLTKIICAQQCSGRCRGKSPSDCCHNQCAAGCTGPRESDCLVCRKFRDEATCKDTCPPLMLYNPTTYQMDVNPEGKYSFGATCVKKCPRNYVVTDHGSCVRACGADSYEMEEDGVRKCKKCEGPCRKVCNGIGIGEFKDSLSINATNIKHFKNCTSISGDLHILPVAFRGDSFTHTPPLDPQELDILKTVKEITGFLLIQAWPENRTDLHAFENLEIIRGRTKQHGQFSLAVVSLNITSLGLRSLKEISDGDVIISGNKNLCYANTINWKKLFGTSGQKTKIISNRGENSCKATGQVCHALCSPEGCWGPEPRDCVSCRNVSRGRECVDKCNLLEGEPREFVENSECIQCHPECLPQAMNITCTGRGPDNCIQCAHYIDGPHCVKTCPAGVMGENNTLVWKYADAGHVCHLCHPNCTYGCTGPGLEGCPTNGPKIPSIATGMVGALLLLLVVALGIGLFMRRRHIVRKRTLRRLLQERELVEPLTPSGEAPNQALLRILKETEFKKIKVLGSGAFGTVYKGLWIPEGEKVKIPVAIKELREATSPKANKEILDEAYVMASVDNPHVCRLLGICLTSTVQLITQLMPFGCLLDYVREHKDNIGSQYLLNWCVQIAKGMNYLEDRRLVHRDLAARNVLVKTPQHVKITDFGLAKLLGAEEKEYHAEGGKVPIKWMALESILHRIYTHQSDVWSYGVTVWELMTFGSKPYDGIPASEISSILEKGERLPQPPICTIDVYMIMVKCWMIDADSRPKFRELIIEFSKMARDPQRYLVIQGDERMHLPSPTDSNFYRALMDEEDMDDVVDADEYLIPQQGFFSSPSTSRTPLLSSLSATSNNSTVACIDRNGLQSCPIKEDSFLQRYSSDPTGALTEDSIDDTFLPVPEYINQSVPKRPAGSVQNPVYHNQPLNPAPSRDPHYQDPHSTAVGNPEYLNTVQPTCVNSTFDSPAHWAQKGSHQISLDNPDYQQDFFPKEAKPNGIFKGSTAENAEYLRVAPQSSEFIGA

HepG2 [16] = assay: Induction of apoptosis in human HepG2 cells assessed as early apoptotic cells at 1.3 uM by Annexin V-FITC/propidium iodide staining based flow cytometry (reference value: 6.11%); format: functional
HepG2 [17] = assay: Induction of apoptosis in human HepG2 cells assessed as viable cells at 1.3 uM by Annexin V-FITC/propidium iodide staining based flow cytometry (reference value: 87.54%); format: functional; conditions: read-out: Activity
HepG2 [18] = assay: Induction of apoptosis in human HepG2 cells assessed as necrotic cells at 1.3 uM by Annexin V-FITC/propidium iodide staining based flow cytometry (reference value: 0.28%); format: functional
HepG2 [19] = assay: Induction of apoptosis in human HepG2 cells assessed as late apoptotic cells at 1.3 uM by Annexin V-FITC/propidium iodide staining based flow cytometry (reference value: 6.07%); format: functional
[20] = target: Mast/stem cell growth factor receptor Kit (Homo sapiens, UniProt P10721); assay: Inhibition of cKIT (unknown origin) using FAM-labeled peptide as substrate preincubated for 10 mins followed by substrate addition by mobility shift assay
Chain of Mast/stem cell growth factor receptor Kit (P10721 whole entry): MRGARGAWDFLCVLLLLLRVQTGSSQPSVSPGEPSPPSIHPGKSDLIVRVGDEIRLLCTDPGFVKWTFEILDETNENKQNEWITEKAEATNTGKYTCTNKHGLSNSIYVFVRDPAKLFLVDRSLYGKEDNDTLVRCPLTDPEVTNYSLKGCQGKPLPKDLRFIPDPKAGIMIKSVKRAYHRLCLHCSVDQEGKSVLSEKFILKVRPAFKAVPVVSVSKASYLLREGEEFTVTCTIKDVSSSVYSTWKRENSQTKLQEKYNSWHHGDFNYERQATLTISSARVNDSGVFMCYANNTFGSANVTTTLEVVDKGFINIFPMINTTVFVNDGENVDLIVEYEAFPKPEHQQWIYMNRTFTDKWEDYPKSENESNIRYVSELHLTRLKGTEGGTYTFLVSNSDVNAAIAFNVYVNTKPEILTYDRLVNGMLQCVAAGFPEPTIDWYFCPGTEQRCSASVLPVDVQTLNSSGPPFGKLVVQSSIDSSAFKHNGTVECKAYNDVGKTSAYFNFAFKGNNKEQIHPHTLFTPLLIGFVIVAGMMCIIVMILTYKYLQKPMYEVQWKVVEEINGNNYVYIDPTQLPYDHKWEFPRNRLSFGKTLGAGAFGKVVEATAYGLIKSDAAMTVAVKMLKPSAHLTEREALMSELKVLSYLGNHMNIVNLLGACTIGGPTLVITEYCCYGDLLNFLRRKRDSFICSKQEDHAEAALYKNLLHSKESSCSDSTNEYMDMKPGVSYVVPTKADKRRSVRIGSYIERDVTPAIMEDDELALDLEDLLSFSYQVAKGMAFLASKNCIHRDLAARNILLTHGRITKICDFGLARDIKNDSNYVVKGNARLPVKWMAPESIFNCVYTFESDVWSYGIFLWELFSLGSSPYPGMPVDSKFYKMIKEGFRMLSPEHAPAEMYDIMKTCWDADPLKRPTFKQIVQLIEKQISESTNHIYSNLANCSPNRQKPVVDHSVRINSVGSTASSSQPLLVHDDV

Structure (SMILES) | pIC50 (HepG2 [1]) | pIC50 (PC-3 [2]) | pIC50 (MCF7 [4]) | pIC50 (A549 [5]) | further results
Cc1cc(=O)n(-c2ccc(Br)cc2F)nc1C(=O)Nc1ccc(Oc2ncnc3[nH]ccc23)cc1 | 5.44 | 5.56 | 5.49 | 5.42 | pIC50 [3]: 4.68
Cc1cc(=O)n(-c2ccccc2OC(F)(F)F)nc1C(=O)Nc1ccc(Oc2ncnc3c2ccn3C)cc1 | < 4.22 | 5.29 | 4.57 | 4.60 | –
Cn1ccc2c(Oc3ccc(NC(=O)c4nn(-c5ccc(Cl)c(C(F)(F)F)c5)ccc4=O)cc3F)ccnc21 | 4.87 | 4.68 | 4.74 | 4.75 | –
Cc1cc(=O)n(-c2ccccc2Cl)nc1C(=O)Nc1ccc(Oc2ncnc3c2ccn3C)c(F)c1 | < 4.22 | < 4.22 | < 4.22 | < 4.22 | –
Cn1ccc2c(Oc3ccc(NC(=O)c4nn(-c5ccc(Cl)cc5)ccc4=O)cc3F)ccnc21 | < 4.22 | < 4.22 | < 4.22 | < 4.22 | –
Cn1ccc2c(Oc3ccc(NC(=O)c4nn(-c5ccc(Br)cc5)ccc4=O)cc3F)ccnc21 | < 4.22 | < 4.22 | 4.47 | < 4.22 | –
Cc1cc(=O)n(-c2ccccc2C(F)(F)F)nc1C(=O)Nc1ccc(Oc2ncnc3c2ccn3C)cc1 | 4.56 | 4.72 | 5.11 | 5.23 | –
O=C(Nc1ccc(Oc2ccnc3[nH]ccc23)c(F)c1)c1nn(-c2ccccc2)ccc1=O | 4.60 | 4.41 | 4.46 | 4.25 | –
Cc1ccc(-n2nc(C(=O)Nc3ccc(Oc4ncnc5[nH]ccc45)c(F)c3)c(C)cc2=O)cc1 | 4.73 | 4.69 | 4.72 | 4.73 | –
COc1ccc(-n2ccc(=O)c(C(=O)Nc3ccc(Oc4ccnc5[nH]ccc45)cc3)n2)cc1 | 4.29 | < 4.22 | 4.66 | 4.27 | –
O=C(Nc1ccc(Oc2ccnc3[nH]ccc23)c(F)c1)c1nn(-c2ccc(Cl)cc2)ccc1=O | < 4.22 | 4.37 | < 4.22 | < 4.22 | –
Cc1cc(=O)n(-c2ccccc2OC(F)(F)F)nc1C(=O)Nc1ccc(Oc2ncnc3[nH]ccc23)c(F)c1 | < 4.22 | < 4.22 | 4.93 | 4.79 | –
O=C(Nc1ccc(Oc2ccnc3[nH]ccc23)cc1)c1nn(-c2ccc(Cl)c(C(F)(F)F)c2)ccc1=O | 5.88 | 5.33 | 5.20 | 5.66 | Activity (HepG2 [6]): Active; Activity (HepG2 [7]): Active; pIC50 [8]: 5.62; Activity (PC-3 [9]): Dose-dependent effect; Activity (A549 [10]): Dose-dependent effect; pIC50 [11]: 6.11; Activity (HepG2 [12]): Active; Activity (MCF7 [13]): Dose-dependent effect; Activity (HepG2 [14]): Dose-dependent effect; pIC50 [15]: < 5.00; pIC50 [3]: 7.14; Activity (HepG2 [16]): 23.01%; viability at 1.3 µM (HepG2 [17]): 62.8%; Activity (HepG2 [18]): 2.31%; Activity (HepG2 [19]): 11.89%; pIC50 [20]: 5.66
Cn1ccc2c(Oc3ccc(NC(=O)c4nn(-c5ccc(Cl)c(C(F)(F)F)c5)ccc4=O)cc3)ccnc21 | 4.63 | 4.99 | 4.82 | 4.94 | –
O=C(Nc1ccc(Oc2ccnc3[nH]ccc23)c(F)c1)c1nn(-c2ccc(Cl)c(F)c2)ccc1=O | 5.02 | 4.87 | 4.94 | 4.99 | –
COc1ccc(-n2ccc(=O)c(C(=O)Nc3ccc(Oc4ccnc5c4ccn5C)cc3)n2)cc1 | < 4.22 | < 4.22 | < 4.22 | < 4.22 | –

Structure (SMILES) | pIC50 (HepG2 [1]) | pIC50 (PC-3 [2]) | pIC50 (MCF7 [4]) | pIC50 (A549 [5]) | further results
Cc1cc(=O)n(-c2cccc(F)c2)nc1C(=O)Nc1ccc(Oc2ncnc3c2ccn3C)cc1 | < 4.22 | < 4.22 | 4.51 | 4.63 | –
Cc1cc(=O)n(-c2ccccc2C(F)(F)F)nc1C(=O)Nc1ccc(Oc2ncnc3c2ccn3C)c(F)c1 | < 4.22 | 4.59 | < 4.22 | 4.45 | –
Cn1ccc2c(Oc3ccc(NC(=O)c4nn(-c5ccc(Br)cc5F)ccc4=O)cc3F)ccnc21 | 4.62 | 4.79 | 4.85 | 4.57 | –
O=C(Nc1ccc(Oc2ccnc3[nH]ccc23)c(F)c1)c1nn(-c2ccc(Br)cc2F)ccc1=O | 4.25 | 5.06 | 4.63 | 4.25 | –
Cn1ccc2c(Oc3ccc(NC(=O)c4nn(-c5ccc(Br)cc5F)ccc4=O)cc3)ccnc21 | 4.51 | 4.69 | 4.70 | 4.45 | –
Cn1ccc2c(Oc3ccc(NC(=O)c4nn(-c5ccccc5)ccc4=O)cc3)ccnc21 | 4.25 | 4.24 | 4.35 | 4.29 | –
Cc1cc(=O)n(-c2ccccc2OC(F)(F)F)nc1C(=O)Nc1ccc(Oc2ncnc3c2ccn3C)c(F)c1 | < 4.22 | < 4.22 | < 4.22 | < 4.22 | –
O=C(Nc1ccc(Oc2ccnc3[nH]ccc23)cc1)c1nn(-c2ccc(Cl)c(F)c2)ccc1=O | 5.28 | 5.11 | 5.51 | 5.59 | pIC50 [3]: 6.77
Cc1cc(=O)n(-c2cccc(C(F)(F)F)c2)nc1C(=O)Nc1ccc(Oc2ncnc3[nH]ccc23)c(F)c1 | 4.58 | 4.81 | 4.93 | 4.46 | –
Cc1cc(=O)n(-c2ccc(F)cc2)nc1C(=O)Nc1ccc(Oc2ncnc3[nH]ccc23)cc1 | < 4.22 | < 4.22 | 5.32 | < 4.22 | –
Cc1cc(=O)n(-c2ccc(Br)cc2F)nc1C(=O)Nc1ccc(Oc2ncnc3c2ccn3C)cc1 | 4.47 | 4.73 | 4.56 | 4.33 | –
Cc1ccc(-n2nc(C(=O)Nc3ccc(Oc4ncnc5[nH]ccc45)cc3)c(C)cc2=O)cc1 | 5.13 | 5.02 | 5.44 | 5.19 | pIC50 [3]: 4.57
COc1ccc(-n2ccc(=O)c(C(=O)Nc3ccc(Oc4ccnc5[nH]ccc45)c(F)c3)n2)cc1 | < 4.22 | 4.33 | 4.26 | < 4.22 | –
Cc1cc(=O)n(-c2cccc(F)c2)nc1C(=O)Nc1ccc(Oc2ncnc3c2ccn3C)c(F)c1 | < 4.22 | 5.05 | < 4.22 | < 4.22 | –
Cc1ccc(-n2nc(C(=O)Nc3ccc(Oc4ncnc5c4ccn5C)cc3)c(C)cc2=O)cc1 | 4.47 | < 4.22 | 4.97 | < 4.22 | –
